Here are results for 1 compound from patent US20040141912A1, “Method for targeting chemical compounds to cells and pharmaceutical compositions used therein” (priority 2001, published 2004).

What all share (type): cell-based, human
Experiment [1] is described as follows: FACS analysis of DDC uptake by control and activated platelets. Conditions: DDC 5 μM, 5 min. The method, then: (§1) FIG. 6: Control and activated platelets were co-incubated with DDC (at a final concentration of 5 μM under three different conditions: no further treatment; Ca^2+-deprivation due to incubation with BAPTA and EGTA; and restoration of Ca^2+ following re-addition of Ca^2+ and calcium-ionophore A23187. Platelets were then subjected to FACS analysis.
(§2) The selective binding of DDC to activated platelets was determined using flow cytometric (FACS) analysis. Platelet rich plasma was obtained from healthy volunteers. 10^9 fresh platelets were centrifuged (5 minutes, 380×g), washed and re-suspended in Tyrode's buffer (137 mM NaCl; 2.8 mM KCl; 1 mM MgCl2, 12 mM NaHCO3; 0.4 mM Na2HPO4; 5.5 mM D-glucose and 10 mM Hepes pH 7.4; 0.35% BSA). Control platelets were kept on ice.
(§3) For activation, 200 μl of washed platelets were incubated with the calcium ionophore A23187 in the presence of 5 mM of CaCl2, at room temperature. Following incubation, platelets were centrifuged (2 min., 10^4 rpm) and re-suspended in 1 ml of Tyrode's buffer. Activated platelets were subsequently incubated with 5 μM of DDC for 5 minutes at room temperature, under three different conditions: (i). without any further treatment; (ii). under conditions of Ca^2+-deprivation, induced by 20 μM of BAPTA and 1 mM of EGTA (for 30 min. at 4° C.); (iii). upon restoration of Ca^2+, wherein platelet intracellular Ca^2+ levels were replenished by addition of 1 mM of CaCl2 and 2 μM of the calcium ionophore A23187. Non-activated platelets served as control. Platelets were subjected to flow cytometric (FACS) analysis using Becton-Dickinson cell sorter and CellQuest software. Excitation was at 360 nm and emission was measured at 530 nm.

In another experiment the test system is activated platelets. The experiment is described as above. The method, then:
as §1, §2, §3

The test system of experiment [2] is Jurkat cells. Nature of the experiment: FACS analysis of NST830 uptake by Jurkat cells induced to undergo apoptosis by anti-Fas antibody (PI co-staining). The settings on record: upper right quadrant. The method, then:
FIG. 7 Jurkat cells were induced to undergo apoptosis by anti-Fas Ab treatment as described for FIG. 3 above. Subsequently, cells were incubated with 50 μM of NST830 for 5 minutes, co-stained with PI and subjected to FACS analysis. In order to inhibit PLS in apoptotic cells, two approaches were used:
(i). Ca^2+-deprivation: apoptotic cells were incubated for 30 min at room temperature in the presence of BAPTA (20 μM) and EGTA (1 mM), and then treated with NST830 and PI as above.
(ii). PLS inhibition by rottlerin: prior to treatment with NST830 and PI, apoptotic cells were incubated for 40 min in the presence of 0.5 μM of rottlerin, and then submitted to FACS analysis.
Cultured Jurkat cells were induced to undergo apoptosis by anti-Fas antibody (0.1 μg/ml) for 2.5 hours, as described in Example 1. Subsequently, both control and apoptotic cells were incubated with 50 μM of NST830 for 5 minutes, and uptake was measured by FACS. Prior to FACS analysis, cells were also co-stained with PI. Induction of apoptosis was associated with the emergence of a large, distinct population of 64% of cells in the early stages of the apoptotic process, selectively binding NST830 and occupying the right lower quadrant of the plot. No substantial change was observed under these conditions in the percentage of cells in late apoptosis, that are unselectively permeable to PI and NST830. […]

In experiment [3] the test system is Jurkat cells. Nature of the experiment: FACS analysis of DDC uptake by Jurkat cells induced to undergo apoptosis by staurosporine. The method, then:
FIG. 8: Jurkat cells were induced to undergo apoptosis by treatment with staurosporine. Subsequently, these cells were treated with DDC. The relative change in DDC uptake by cells in early versus late stages of apoptosis, following induction and inhibition of the PLS system is presented. Shown are the percents of positive early or late apoptotic events (mean values), calculated from 3 independent experiments, and wherein the events (either early or late) observed in apoptotic culture are regarded as 100%. Selective accumulation of DDC in early, but not in late apoptotic cells was detected as a result of staurosporine treatment. Ca^2+-deprivation or rottlerin treatment were performed as described in FIG. 1.
The selective uptake of DDC by apoptotic cells is not dependent upon the type of apoptotic trigger. […] Staurosporine acts in an apoptotic pathway which is largely distinct from that of anti-Fas Ab. Jurkat cells were grown as described in Example 1, and were subsequently treated for 4 hours with 1 μM of staurosporine (S4400; Sigma, USA). After induction of apoptosis, cells were treated with DDC (250 μM) for 5 minutes, and were then co-stained with PI and subjected to FACS analysis. Non-treated cells served as control.

“Also recorded” adds a separate entry of the source.

Consider `CN(C)c1cccc2c(S(=O)(=O)NC(CSSCC(NS(=O)(=O)c3cccc4c(N(C)C)cccc34)C(=O)O)C(=O)O)cccc12` (stereo not shown) [DDC], for which the “DDC uptake (fluorescence intensity), control non-activated platelets” value in experiment [1] is “low levels of fluorescence intensity; also recorded: only minimal uptake of DDC”. Also, the “DDC uptake (fluorescence intensity), activated platelets under Ca2+-deprivation” value in the experiment with activated platelets (BAPTA 20 μM + EGTA 1 mM, 30 min, 4° C.) is reported as “markedly reduced DDC uptake; also recorded: uptake of DDC was inhibited”. Besides, in the experiment with activated platelets (CaCl2 1 mM + A23187 2 μM after deprivation), the “DDC uptake (fluorescence intensity), activated platelets upon restoration of Ca2+” value is given as “completely restored; also recorded: fluorescence returned to the high values”. Further, the “DDC uptake (fluorescence intensity), activated platelets” value in the experiment with activated platelets (activated with A23187 + 5 mM CaCl2, DDC 5 μM, 5 min) is on record as “significant shift to higher fluorescence values; also recorded: marked enhancement of fluorescence as compared to controls; also recorded: marked shift to higher fluorescence levels; also recorded: marked shift to higher fluorescence intensity”. Besides, in the experiment with Jurkat cells [2] (BAPTA + EGTA), the “NST830-binding, PI-permeable late apoptotic cells upon Ca2+-deprivation” value is on record as “unaffected”. The “NST830-binding, PI-permeable late apoptotic cells in the presence of rottlerin” value with Jurkat cells [2] (rottlerin 0.5 μM) is “no change was detected”. Moreover, the “Positive early apoptotic events for DDC (apoptotic culture regarded as 100%)” value came out at 36% in the experiment on Jurkat cells [3] (control non-treated cells, mean of 3 experiments, DDC 250 μM 5 min); 100% with Jurkat cells [3] (staurosporine 1 μM 4 h apoptotic cells); 14% with Jurkat cells [3] (staurosporine-treated cells, Ca2+-deprivation); 30% with Jurkat cells [3] (staurosporine-treated cells, rottlerin treatment).
